Like-named read-outs stand apart in the source and are kept apart here.
Experiments:
[1] = biological target: T1, Human transthyretin (TTR) thyroxine binding sites (Homo sapiens, UniProt P02766); experiment: TTR CZE Free Probe Peak Height Restoration (FPPHR) assay, 8-ANS displacement
T1 construct: purchased SCIPAC (Sittingbourne, Kent, UK) P171-1
Method: CZE assays development and fragment screening were performed on a Beckman P/ACE MDQ capillary electrophoresis system (Beckman Coulter Inc., Brea, CA) operated by 32 Karat™ software. All capillaries (Polymicro Technologies, Phoenix, AZ) used were internally coated with polyvinyl alcohol and of around 30 cm in length, 75 microns in internal diameter. Capillary temperature was maintained at 20 °C by recirculating fluorinated fluid coolant during electrophoresis. Sample trays and buffer trays temperature were maintained at 4°C and ambient respectively. For every electrophoretic run, the capillary was pressure rinsed and prefilled with electrophoresis buffer also known as background electrolyte (termed as Running Buffer hereafter) before injection. After each electrophoretic run, the capillary was rinsed with Running Buffer and H2O by pressure (20 psi for 1 minute). Three Running Buffers (RB), A: 20 mM Tris pH 7.5, 1 mM KCl, 1.62 mM NaCl; B: 20 mM HEPES pH 7.0, 2 mM CaCl2 and C: 20 mM HEPES pH 7.0, 2 mM CaCl2, 1% DMSO were used. All CE traces were analysed by 32Karat™ Software with a built-in automatic peak integration algorithm.
Control 1 Inject Buffer (IB) containing 30 μM 8-ANS was prepared by mixing 1 μL of 3 mM 8-ANS DMSO stock with 99 μL of Running Buffer B in a 0.2 mL PCR tube. Control 2 Inject Buffer was prepared by mixing 1μL of 3 mM 8-ANS DMSO stock with 20 μL of 100 μM tetrameric TTR stock in Running Buffer B and 79 μL of Running Buffer B. The final concentrations (f/c) were 8-ANS 30 μM, TTR 20 μM and 1% DMSO v/v.
The maximum Free Probe Peak Height (Control 1 Peak Height) was determined by Outlet Injection (see Fig 1) of Control 1 with an injection pressure of 0.5 psi for 5 seconds (equivalent to ≈ 20–30 nL). An identical injection of Control 2 provides the minimum Free Probe Peak Height (Control 2 Peak Height) enabling calculation of % of bound and unbound, i.e., free 8-ANS. To determine the 8-ANS peak height in Control 1 and Control 2, the capillary was prefilled with Buffer C and electrophoresis carried out at 10 kV (Normal Polarity, Fig 1) with UV monitoring at 230 nm. For displacement analysis, ligand DMSO stock was diluted in Buffer B and used to fill the capillary as the Running Buffer. Electrophoresis commenced after injection of Control 2, thus the injected 8-ANS-TTR complex migrates inside a capillary filled with the test ligand. The observed 8-ANS peak height is defined as Sample Peak Height and the displaced 8-ANS can be calculated as:
\% of Free Probe Peak Height Restoration= Sample Peak Height−Control 2 Peak Height/Control 1 Peak Height−Control 2 Peak Height

[2] = biological target: T2, TTR in undiluted normal human reference plasma (Homo sapiens, UniProt P02766); experiment: 125I-T4 displacement assay in neat normal human plasma; type: binding; conditions: neat normal human plasma; 4-parameter logistic fit
T2 construct: The TTR in plasma was immunoprecipitated by sheep anti-human prealbumin polyclonal antibody; tissue Precision Biologic Inc., Nova Scotia, Canada
From the text: The assay was adapted from one described previously. Briefly, test ligand and ^125I-T4 (Perkin Elmer Inc., Waltham, MA) were mixed with undiluted normal human reference plasma (Precision Biologic Inc., Nova Scotia, Canada). The TTR in plasma was immunoprecipitated by sheep anti-human prealbumin polyclonal antibody (The Binding Site Group Ltd., Birmingham, UK). The immunoprecipitate was washed with buffer and their radioactivity measured with a 2470 WIZARD automatic gamma counter (Perkin Elmer Inc., Waltham, MA). […] Percentage of total radioligand binding for samples of different ligand concentration was then calculated as follows: […]
To calculate IC50 values, percentage of total radioligand binding at different concentration points were entered in SigmaPlot™ 11.0. Titration curves were done in triplicates with a minimum of 5 data points fitted by 4-Parameter Logistic Function.

[3] = biological target: T3, TTR (Homo sapiens, UniProt P02766); experiment: Isothermal titration calorimetry (ITC); type: binding
T3 construct: purchased SCIPAC (Sittingbourne, Kent, UK) P171-1
Method: All ITC experiments were conducted on an iTC200 calorimeter (GE Healthcare), and the settings were 25 °C, stir at 1000 RPM, 1–2 μL injection spaced with 100–150 seconds, reference power: 6 μcal/sec. Isotherms were fitted using ORIGIN 7 software (OriginLab, MA, USA). To prepare TTR ITC protein solution (5 mL), purified and freeze-dried human TTR was weighted and dissolved in 310 μL of pure water. The reconstituted protein solution was then desalted by spin column (Bio-Rad, Bio-Gel P6) and the eluted volume was transferred to a 15mL falcon tube. The protein solution was further diluted with 10x Phosphate Buffered Saline (PBS, 500 μL), DMSO (150 μL) and water, (f/c: 4.3 mM Na2HPO4, 137 mM NaCl, 2.7 mM KCl, 1.47 mM KH2PO4, 3% DMSO v/v, TTR 19.35–25 μM, pH 7.8). UV A260/280 was measured to obtain the actual protein concentration using a calculated extinction coefficient of 18450 M^-1 cm^-1. To prepare ligand ITC solution (1 mL), 30 μL of ligand stock in DMSO was diluted with 10x PBS (100 μL) and water (f/c: 4.3 mM Na2HPO4, 137 mM NaCl, 2.7 mM KCl, 1.47 mM KH2PO4, 3% DMSO v/v, Ligand 280–600 μM, pH 7.8).

[4] = biological target: T3, TTR; experiment: Induced near-UV circular dichroism of ligand on TTR binding; conditions: induced CD signal 280–320 nm, TTR 13.62 μM
Method: CD experiments were conducted in Diamond Light Source (Oxon, UK) beamline B23 installed with an Olis™ DSM 20 CD spectrophotometer. CD Buffer (10 mM Tris-HCl, 5 mM NaCl, pH 8.0) was prepared and loaded (450 μL) into a UV cuvette (10 mm path length). The near-UV (260–380 nm) CD spectrum of the solution was measured. 1 μL of SFL001535 10 mM DMSO stock was added into the cuvette and mixed by inversion. The CD spectrum of this solution was measured again. Contents of the cuvette containing SFL001535 in buffer were removed and the cuvette was washed with nitric acid. CD Buffer containing 13.62 μM of TTR was loaded into the cuvette and the near-UV CD spectrum of TTR was obtained (measured 10 times). A total of 8 μL of SFL001535 10 mM stock was added to the solution in 4 step additions (1 + 1 + 2 + 4 μL) and the CD spectrum were measured after each addition. The induced CD of SFL001535 was calculated by subtracting the CD spectrum of TTR alone.

[5] = N = number of non-hydrogen atoms

**Q.** Which results are given for c1ccc2c(-c3cn[nH]c3)ccnc2c1 [SFL001535, 4-(3H-pyrazol-4-yl)quinoline]?
**A.** FPPHR % tested at 10 µM ([1]; compound 10 µM in Running Buffer, 10% minimum for a binder): 34.10% tested at 10 µM; FPPHR % at 100 μM ([1]; compound 100 μM in Running Buffer, 10% minimum for a binder): 64.23%; inhibition at 50 µM ([1]; read-out: FPPHR % at 50 μM): 60.5%; IC50 [2]: 34500 ± 12400 nM; Kd ([3]; 25 °C, PBS pH 7.8, 3% DMSO, read-out: ITC Kd1 ± SD (N = 3)): 260 nM; Kd ([3]; 25 °C, PBS pH 7.8, 3% DMSO, read-out: ITC Kd2 ± SD (N = 3)): 1960 nM; Kd ([3]; Fig 8 isotherm, ± standard error of curve fitting, read-out: ITC Kd1 of shown isotherm): 260 ± 88.2 nM; Kd1 LE (Ligand Efficiency, ΔG/N) [3, 5]: 0.60 kcal/mol; Kd2 LE (Ligand Efficiency, ΔG/N) [3, 5]: 0.52 kcal/mol; binding to TTR by induced CD [4]: confirmed

— publication PMC12077799, “Fragment-based drug discovery for transthyretin kinetic stabilisers using a novel capillary zone electrophoresis method” (PLOS One, 2025)
